From patent publication US20030237103A1, “Methods and compositions for pharmacological and toxicological evaluation of test agents” (priority 2002, published 2003)
Read-outs that look alike come from different tables or passages of the source.

What was measured:
[1] = test system: Panel, CD-IGS and parental rat strains; assay: Kidney histology of gentamicin- and vehicle-treated rats
Text: Arrows point to regions of the proximal tabules damage scored as follows: 0=no damage, 1=25% injured tubules, 2=50% injured tubules and protein casts in lumens, 3=severe injury of >50% of tubules, 4=nearly complete necrosis of all tubules. Representative histological samples from the outbred Sprague Dawley rat CD-IGS (Panel B) and the four inbred parental strains Brown Norway, Fischer 344, Lewis and Wistar Kyoto rats (Panel C) are also shown.
We sought to maximize the range of genetic susceptibility to the adverse drug effects across the strains.

[2] = test system: Sprague Dawley, LEW and F344 rats; settings: cited from earlier work

gentamicin
damage to proximal tubules ([1]; F1 hybrids except WKYxBN): ≥ 50%
kidney damage by histology ([1]; LEW×F344 F1 rats, 240 mg/Kg/day): nearly complete necrosis of all proximal tubules
effect on the kidney ([1]; WKY rats): virtually no effect
injured tubules ([1]; WKY rats, both vehicle and gentamicin treated): 25%
renal damage by histology ([1]; WKYxBN F1 strain): little renal damage
tubules damaged ([1]; gentamicin-treated parental strains except WKY): greater than 50%
susceptibility to nephrotoxic effects ([2]; F344 compared with SD): more susceptible
nephrotoxic effects (protein in the urine) ([2]; LEW strain): sensitive
nephrotoxic effects (protein in the urine) ([2]; Sprague Dawley rats): resistant
